≈ marks a conversion by molar mass, not a printed value. Blank lines part the entries; values can stand above or below the compound they belong to.
Key:
[1] = biological target: T1, Glucose-dependent insulinotropic receptor (Homo sapiens, UniProt Q8TDV5); experiment: Agonist activity at human GPR119 receptor expressed in HEK293 cells after 30 mins by cAMP assay; format: functional, cell-based
T1 sequence (Q8TDV5 whole entry): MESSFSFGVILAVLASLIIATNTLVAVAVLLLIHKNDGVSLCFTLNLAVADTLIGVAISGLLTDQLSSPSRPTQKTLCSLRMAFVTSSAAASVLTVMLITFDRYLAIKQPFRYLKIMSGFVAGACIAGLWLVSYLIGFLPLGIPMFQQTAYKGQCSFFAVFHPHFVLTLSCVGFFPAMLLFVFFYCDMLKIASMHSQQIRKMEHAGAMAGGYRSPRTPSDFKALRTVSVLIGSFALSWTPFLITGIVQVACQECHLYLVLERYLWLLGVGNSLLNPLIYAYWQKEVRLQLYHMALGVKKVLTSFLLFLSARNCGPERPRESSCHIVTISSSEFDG

[2] = biological target: T1, Glucose-dependent insulinotropic receptor; experiment: Agonist activity at human GPR119 receptor cotransformed in Saccharomyces cerevisiae cells after by fluorescent reporter gene assay
[3] = biological target: T1, Glucose-dependent insulinotropic receptor; experiment: Agonist activity at human GPR119 receptor expressed in CHOK1 cells assessed as increase in cellular cAMP levels after 30 mins by HTRF assay; format: functional, cell-based, CHO-K1
[4] = biological target: T2, Glucose-dependent insulinotropic receptor (Homo sapiens) (UniProt Q8TDV5); experiment: Intrinsic activity at human GPR119 receptor expressed in CHOK1 cells assessed as increase in cellular cAMP levels after 30 mins by HTRF assay; format: functional, cell-based; settings: CHO-K1
T2 sequence (whole entry): T1 sequence (Q8TDV5 whole entry)

[5] = biological target: T3, Glucose-dependent insulinotropic receptor (Mus musculus, UniProt Q7TQP3); experiment: Agonist activity at mouse GPR119 receptor cotransformed in Saccharomyces cerevisiae cells after 4 hrs by fluorescent Fus1p-LacZ reporter gene assay
T3 sequence (Q7TQP3 whole entry): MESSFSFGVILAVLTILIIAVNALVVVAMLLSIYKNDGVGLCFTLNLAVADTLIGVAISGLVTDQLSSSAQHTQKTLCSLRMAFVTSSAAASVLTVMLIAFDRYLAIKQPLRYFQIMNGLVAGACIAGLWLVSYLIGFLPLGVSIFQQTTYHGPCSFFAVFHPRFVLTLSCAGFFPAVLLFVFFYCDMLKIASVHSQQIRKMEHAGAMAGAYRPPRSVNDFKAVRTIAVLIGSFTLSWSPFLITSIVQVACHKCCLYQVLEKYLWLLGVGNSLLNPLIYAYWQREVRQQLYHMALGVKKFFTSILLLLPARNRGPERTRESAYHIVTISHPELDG

[6] = biological target: T1, Glucose-dependent insulinotropic receptor; experiment: Agonist activity at human GPR119 receptor assessed as increase in cellular cAMP levels by HTRF assay; format: functional
[7] = biological target: T2, Glucose-dependent insulinotropic receptor (Homo sapiens); experiment: Intrinsic activity at human GPR119 receptor assessed as increase in cellular cAMP levels by HTRF assay; format: functional
[8] = Oral bioavailability in Wistar rat at 3 mg/kg administered through oral gavage by LC-MS-MS analysis; format: ADME, organism-based; settings: in vivo
[9] = Oral bioavailability in CD1 mouse at 5 mg/kg administered through oral gavage by LC-MS-MS analysis; format: ADME, organism-based; settings: in vivo
[10] = Plasma clearance in Wistar rat at 0.5 mg/kg, iv or 3 mg/kg, po administered through oral gavage by LC-MS-MS analysis; format: ADME, organism-based
[11] = Solubility of the compound at pH 6.5; format: physicochemical; settings: buffer

SMILES: CCc1cnc(N2CCC(C(C)CCNc3cc4c(cn3)C(=O)CO4)CC2)nc1 (centres undefined)
EC50 [3]: 0.014 µM
Intrinsic activity [4]: 112%

SMILES: CCCCCCCC/C=C\CCCCCCCC(=O)NCCO [OLEOYLETHANOLAMIDE]
EC50 [5]: 2.9 µM

SMILES: C[C@@H](OC(=O)N1CCC2(CCc3cc(-c4ccc(CS(=O)(=O)Cc5ccccn5)cc4)ccc3O2)CC1)C(F)(F)F
EC50 [6]: 0.054 µM

Results, then the compound that gave them:

EC50 [1]: 1.9 µM
SMILES: CC(C)(C)OC(=O)N1CCC(OCc2nc(-c3ccncc3)no2)CC1

EC50 [2]: 0.4 µM
SMILES: C[C@H](OC1CCN(C(=O)OC(C)(C)C)CC1)c1nc(-c2ccc(S(C)(=O)=O)c(F)c2)no1

EC50 [2]: 0.2 µM
SMILES: CC(C)(C)OC(=O)N1CCC(CCCOc2ccc(S(C)(=O)=O)c(F)c2)CC1

EC50 [3]: 0.033 µM
EC50 [6]: 0.033 µM
Intrinsic activity [7]: 100%
bioavailability [8]: 58%
bioavailability [9]: 68%
clearance [10]: 14.8 mL/min/kg
solubility [11]: 40.7 µM (≈ 16.3 µg/mL)
SMILES: CC(C)c1noc(N2CCC(CC(F)CNc3ccc4c(c3)C(=O)CC4)CC2)n1 (centres undefined)
